Measured values: ChEMBL document CHEMBL1777778 (Bioorg Med Chem Lett, 2011)
≈ marks a conversion by molar mass, not a printed value.

Key:
[1] = Half life in Hanover Wistar rat at 3 mg/kg, iv; assay type: ADME, organism-based; parameters: dose 3 mg/kg, route intravenous; details: in vivo
[2] = Clearance in Hanover Wistar rat at 3 mg/kg, iv; assay type: ADME, organism-based; parameters: dose 3 mg/kg, route intravenous; details: in vivo
[3] = Permeability across apical to basolateral side of human Caco2 cells at 10 uM after 21 days; assay type: ADME, cell-based; details: Caco-2, read-out: permeability
[4] = AUC in Hanover Wistar rat at 3 mg/kg, po; assay type: ADME, organism-based; parameters: dose 3 mg/kg, route oral; details: plasma
[5] = Permeability across basolateral to apical side in human Caco2 cells at 10 uM after 21 days; assay type: ADME, cell-based; details: Caco-2, read-out: permeability
[6] = Intrinsic clearance in human liver microsomes assessed per mg of protein; assay type: ADME, Microsome
[7] = Intrinsic clearance in rat liver microsomes assessed per mg of protein; assay type: ADME, Microsome
[8] = Cmax in Hanover Wistar rat at 3 mg/kg, po; assay type: ADME, organism-based; parameters: dose 3 mg/kg, route oral; details: in vivo
[9] = Aqueous solubility of the compound in phosphate buffer at pH 6.5 by reverse phase HPLC analysis; assay type: physicochemical
[10] = Oral bioavailability in Hanover Wistar rat at 3 mg/kg; assay type: ADME, organism-based; details: in vivo
[11] = Volume of distribution at steady state in Hanover Wistar rat at 3 mg/kg, iv; assay type: ADME, organism-based; parameters: dose 3 mg/kg, route intravenous; details: in vivo, read-out: Vdss

half-life [1]: 3.4 h
clearance [2]: 43.6 mL/min/kg
Papp A→B at 10 µM [3]: 3 ×10⁻⁶ cm/s
AUC [4]: 1220 ng·h/mL
Papp B→A at 10 µM [5]: 18.9 ×10⁻⁶ cm/s
microsomal CLint [6]: 0.74 µL/min/mg
microsomal CLint [7]: 6.2 µL/min/mg
Cmax [8]: 446 ng/mL
solubility [9]: 57.2 µg/mL (≈ 149 µM)
bioavailability [10]: 105%
Vd [11]: 8.1 L/kg
Compound: C[C@H](CS(C)(=O)=O)Nc1n[nH]c2nc(Oc3ccc(F)cc3F)ncc12
